The record followed here is US11396517B1, “Exo-aza spiro inhibitors of menin-MLL interaction” (Janssen Pharmaceutica NV, priority 2017, dated 2022).

Where only a bound is given, the exact number is not on record here.

The assay addresses T1, menin (Homo sapiens, UniProt O00255, T541A).
T1 construct: Menin (a.a. 1-610-6×his tag)
T1 sequence (O00255 with tags, fused parts or gaps T541A): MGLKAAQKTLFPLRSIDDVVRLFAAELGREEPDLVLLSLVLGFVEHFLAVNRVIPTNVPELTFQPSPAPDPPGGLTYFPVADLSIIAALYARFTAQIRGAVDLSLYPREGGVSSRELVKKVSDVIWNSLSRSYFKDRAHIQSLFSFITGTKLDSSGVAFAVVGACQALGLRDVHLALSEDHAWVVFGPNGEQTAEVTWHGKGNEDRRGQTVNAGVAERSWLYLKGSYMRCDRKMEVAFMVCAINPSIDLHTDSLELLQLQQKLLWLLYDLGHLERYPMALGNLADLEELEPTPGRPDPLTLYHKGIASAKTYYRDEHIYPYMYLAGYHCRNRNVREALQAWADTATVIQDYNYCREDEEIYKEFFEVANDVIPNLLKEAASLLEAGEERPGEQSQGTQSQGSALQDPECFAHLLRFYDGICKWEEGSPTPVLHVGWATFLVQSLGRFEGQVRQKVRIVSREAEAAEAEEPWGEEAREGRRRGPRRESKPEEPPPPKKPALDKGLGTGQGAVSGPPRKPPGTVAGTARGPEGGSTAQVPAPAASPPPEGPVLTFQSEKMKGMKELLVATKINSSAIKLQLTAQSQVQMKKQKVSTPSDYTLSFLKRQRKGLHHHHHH
Kind of assay: Menin/MLL homogenous time-resolved fluorescence (HTRF) assay. Type of assay: binding. The following applies: location 2; read-out: (2) location 2 Menin HTRF assay (IC50 (nM)). The protocol:
2) Menin/MLL Homogenous Time-Resolved Fluorescence (HTRF) Assay
To an untreated, white 384-well microtiter plate was added 40 nL 200× test compound in DMSO and 4 μL 2× terbium chelate-labeled menin (vide infra for preparation) in assay buffer (40 mM Tris HCl, pH 7.5, 50 mM NaCl, 1 mM DTT and 0.05% Pluronic F-127). After incubation of test compound and terbium chelate-labeled menin for 5 min at ambient temperature, 4 μL 2× FITC-MBM1 peptide (FITC-β-alanine-[…]-NH2 (SEQ ID NO: 23)) in assay buffer was added, the microtiter plate centrifuged at 1000 rpm for 1 min and the assay mixtures incubated for 15 min at ambient temperature. The relative amount of menin.FITC-MBM1 complex present in an assay mixture is determined by measuring the homogenous time-resolved fluorescence (HTRF) of the terbium/FITC donor/acceptor fluorphore pair using a BMG Pherastar plate reader (ex. 337 nm/terbium em. 490 nm/FITC em. 520 nm) at ambient temperature. The degree of fluorescence resonance energy transfer (the HTRF value) is expressed as the ratio of the fluorescence emission intensities of the FITC and terbium fluorophores (Fern 520 nm/Fem 490 nm). The final concentrations of reagents in the binding assay are […] terbium chelate-labeled menin (location 2), 75 nM FITC-MBM1 peptide and 0.5% DMSO in assay buffer. Dose-response titrations of test compounds are conducted using an 11 point, three-fold serial dilution scheme, starting typically at 25 μM (location 1) or starting typically at 10 μM (location 2).
Compound potencies were determined by first calculating % inhibition at each compound concentration according to equation 1: % inhibition=((HC−LC)−(HTRF^compound−LC))/(HC−LC))*100 (Eqn 1)
Where LC and HC are the HTRF values of the assay in the presence or absence of a saturating concentration of a compound that competes with FITC-MBM1 for binding to menin, and HTRF^compound is the measured HTRF value in the presence of the test compound. FTC and LC HTRF values represent an average of at least 16 replicates per plate.
Where Bottom and Top are the lower and upper asymptotes of the dose-response curve, respectively, IC50 is the concentration of compound that yields 50% inhibition of signal and h is the Hill coefficient.
Preparation of Terbium cryptate labeling of Menin: Menin (a.a. 1-610-6×his tag (“6×his” disclosed as SEQ ID NO: 3)) was labeled with terbium cryptate as follows. 2 mg of Menin was buffer exchanged into 1× phosphate buffered saline. 16 uM Menin was incubated with 4-fold molar excess NHS-terbium cryptate (Cisbio Bioassays, Bedford, Mass.) for 2 hours at room temperature. The labeled protein was purified away from free label by running the reaction over a Superdex 200 Increase 10/300 GL column at 0.75 ml/min. Peak fractions were collected, aliquoted and frozen at −80° C.
(In TR-FRET formats the signal depends on donor and acceptor labels being close together.)
As to `CS(=O)(=O)Nc1ccc(C(=O)NC2CC3(CCN(c4ncnc5sc(CC(F)(F)F)cc45)C3)C2)cc1` (single isomer, unassigned) [Compound 28], the IC50 is > 10000 nM. The result for `CS(=O)(=O)Nc1ccc(C(=O)NC2CC3(CCN(c4ncnc5sc(CC(F)(F)F)cc45)C3)C2)cc1` (single isomer, unassigned) [Compound 29] reads 316 nM; that for `FC(F)(F)Cc1cc2c(N3CCC4(CCC(Nc5ccccc5)C4)C3)ncnc2s1` (single isomer, unassigned) [Compound 31], 241 nM; that for `FC(F)(F)Cc1cc2c(N3CCC4(CCC(Nc5ccccc5)C4)C3)ncnc2s1` (single isomer, unassigned) [Compound 32], 123 nM. `FC(F)(F)Cc1cc2c(N3CCC4(CCC(Nc5ccccc5)C4)C3)ncnc2s1` (single isomer, unassigned) [Compound 34]: the IC50 was found to be 338 nM. The result for `O=C(NC1CC2(CCN(c3ncnc4sc(CC(F)(F)F)cc34)C2)C1)c1ccccc1` (single isomer, unassigned) [Compound 37] reads 8340 nM; that for `CNc1nc(N2CCC3(CC(NCc4ccccc4)C3)C2)c2cc(CC(F)(F)F)sc2n1` (single isomer, unassigned) [Compound 62], 115 nM. The result for `CNC(=O)c1ccc(NC2CC3(CCN(c4nc(NC)nc5sc(CC(F)(F)F)cc45)C3)C2)cc1` (single isomer, unassigned) [Compound 65] reads 133 nM; that for `CNC(=O)c1ccc(NC2CC3(CCN(c4ncnc5sc(CC(F)(F)F)cc45)C3)C2)c(Cl)c1` (single isomer, unassigned) [Compound 68], 39.6 nM; that for `CNC(=O)c1ccc(NC2CC3(CCN(c4ncnc5sc(CC(F)(F)F)cc45)C3)C2)nc1` (single isomer, unassigned) [Compound 71], 433 nM. The result for `CN(C)CCNC(=O)c1ccc(NC2CC3(CCN(c4ncnc5sc(CC(F)(F)F)cc45)C3)C2)cc1` (single isomer, unassigned) [Compound 74] reads 60.4 nM; that for `Cn1c(=O)[nH]c2cc(NC3CC4(CCN(c5ncnc6sc(CC(F)(F)F)cc56)C4)C3)ccc21` (single isomer, unassigned) [Compound 91], 166 nM; that for `CNC(=O)c1ccc(NC2CCC3(C2)CN(c2ncnc4sc(CC(F)(F)F)cc24)C3)cc1` (single isomer, unassigned) [Compound 97], 213 nM. In the case of `O=C1CN(C(=O)c2ccc(NC3CC4(CCN(c5ncnc6sc(CC(F)(F)F)cc56)C4)C3)cc2)CCN1` (single isomer, unassigned) [Compound 105], the IC50 came out at 3040 nM. As for `Cc1nc(N2CC3(CC[C@H](NCc4cccc(-c5cc[nH]n5)c4)C3)C2)c2cc(CC(F)(F)F)sc2n1` (single isomer, unassigned) [Compound 118], the IC50 worked out at 256 nM. The result for `FC(F)(F)Cc1cc2c(N3CCC4(CC(Nc5ccccc5)C4)C3)ncnc2s1` (single isomer, unassigned) [Compound 150] reads 370 nM. For `FC(F)(F)Cc1cc2c(N3CCC4(CC(Nc5cccnc5)C4)C3)ncnc2s1` (single isomer, unassigned) [Compound 152], the IC50 was 288 nM.

As for `N#CC1(c2ccc(NC3CC4(CCN(c5ncnc6sc(CC(F)(F)F)cc56)C4)C3)cc2)CC1` (single isomer, unassigned) [Compound 171], the IC50 stood at 265 nM. Regarding `CS(=O)(=O)N1CCN(C(=O)c2ccc(NC3CC4(CCN(c5ncnc6sc(CC(F)(F)F)cc56)C4)C3)cc2)CC1` (single isomer, unassigned) [Compound 179], the concentration for half-maximal inhibition (IC50) turned out to be 2900 nM. The result for `COC1CCN(C(=O)c2ccc(NC3CC4(CCN(c5ncnc6sc(CC(F)(F)F)cc56)C4)C3)cc2)CC1` (single isomer, unassigned) [Compound 184] reads 3430 nM. The result for `O=C(c1ccc(NC2CC3(CCN(c4ncnc5sc(CC(F)(F)F)cc45)C3)C2)cc1)N1CCNCC1` (single isomer, unassigned) [Compound 188] reads 200 nM; that for `CNC(=O)c1ccc(NC2CC3(CCN(c4ncnc5sc(CC(F)(F)F)cc45)C3)C2)cc1F` (single isomer, unassigned) [Compound 204], 84.6 nM; that for `N#CCc1ccc(NC2CC3(CCN(c4ncnc5sc(CC(F)(F)F)cc45)C3)C2)c(Cl)c1` (single isomer, unassigned) [Compound 209], 65.3 nM. The result for `N#CCc1ccc(NC2CC3(CCN(c4ncnc5sc(CC(F)(F)F)cc45)C3)C2)cc1Cl` (single isomer, unassigned) [Compound 210] reads 70.4 nM; that for `O=S(=O)(c1ccc(NC2CC3(CCN(c4ncnc5sc(CC(F)(F)F)cc45)C3)C2)cc1)N1CCOCC1` (single isomer, unassigned) [Compound 220], 118 nM. With `CNC(=O)c1ccc(NC2CC3(CCN(c4ncnc5sc(CC(F)(F)F)cc45)C3)C2)cc1C1CCN(C)CC1` (single isomer, unassigned) [Compound 231], the IC50 was 208 nM. The result for `CN1CCC(c2cc(NC3CC4(CCN(c5ncnc6sc(CC(F)(F)F)cc56)C4)C3)ccc2C(=O)N2CCOCC2)CC1` (single isomer, unassigned) [Compound 233] reads 108 nM; that for `CNC(=O)c1c(F)cc(NC2CC3(CCN(c4ncnc5sc(CC(F)(F)F)cc45)C3)C2)cc1F` (single isomer, unassigned) [Compound 244], 516 nM. On to `O=C(c1cnc(NC2CC3(CCN(c4ncnc5sc(CC(F)(F)F)cc45)C3)C2)nc1)N1CCOCC1` (single isomer, unassigned) [Compound 259], for which the IC50 was > 10000 nM.

Regarding `Cc1nc(N2CCC3(CC(NCc4ccccc4)C3)C2)c2cc(CC(F)(F)F)sc2n1` (single isomer, unassigned) [Compound 261], the IC50 stood at 529 nM. Regarding `COc1nc(N2CCC3(CC(Nc4ccccc4)C3)C2)c2cc(CC(F)(F)F)sc2n1` (single isomer, unassigned) [Compound 266], the IC50 amounted to 1020 nM. Turning to `CNc1nc(N2CCC3(CC(Nc4ccccc4)C3)C2)c2cc(CC(F)(F)F)sc2n1` (single isomer, unassigned) [Compound 268], the IC50 was determined as 943 nM. As for `CC(C)(N[C@@H]1CCC2(C1)CN(c1ncnc3sc(CC(F)(F)F)cc13)C2)c1ccccc1` (single isomer, unassigned) [Compound 280], the IC50 was determined as 158 nM.

Consider `CNS(=O)(=O)c1ccc(N[C@@H]2CCC3(C2)CN(c2ncnc4sc(CC(F)(F)F)cc24)C3)cc1` (single isomer, unassigned) [Compound 290], for which the IC50 is 231 nM. The result for `O=C1Cc2ccc(N[C@H]3CCC4(C3)CN(c3ncnc5sc(CC(F)(F)F)cc35)C4)cc2N1` (single isomer, unassigned) [Compound 294] reads 58.4 nM; that for `O=c1[nH]c2ccc(N[C@@H]3CCC4(C3)CN(c3ncnc5sc(CC(F)(F)F)cc35)C4)cc2o1` (single isomer, unassigned) [Compound 296], 146 nM. Regarding `O=c1[nH]c2ccc(N[C@H]3CCC4(C3)CN(c3ncnc5sc(CC(F)(F)F)cc35)C4)cc2o1` (single isomer, unassigned) [Compound 297], the IC50 was determined as 131 nM.

For orientation: IC50 means the point on the concentration scale where inhibition reaches its midpoint.
